Measured values as given in PubChem BioAssay AID248 (DTP/NCI, 2004).
Toxic doses and inconclusive results are not listed. Rule as the data show it: active = T/C of 150% or more; inactive = T/C below 125%.

System: L1210 leukemia ip in BDF1 mice, survival T/C
Test: NCI In Vivo Anticancer Drug Screen. Data for tumor model L1210 Leukemia (intraperitoneal) in B6D2F1 (BDF1) mice
Conditions: endpoint: mean survival time, higher = longer survival
Procedure, shortened: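 Read-out is survival time, reported as the treated-group measurement over the vehicle-control measurement.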

[1] = dose: 100.0 mg/kg/injection, schedule: Q01DX009 (ip), vehicle: saline
[2] = dose: 100.0 mg/kg/injection, schedule: Q04DX003 (ip), vehicle: saline with Tween-80
[3] = dose: 200.0 mg/kg/injection, schedule: Q04DX003 (ip), vehicle: saline with Tween-80
[4] = dose: 400.0 mg/kg/injection, schedule: Q04DX003 (ip), vehicle: saline with Tween-80
[5] = dose: 100.0 mg/kg/injection, schedule: Q01DX001 (ip), vehicle: saline
[6] = dose: 200.0 mg/kg/injection, schedule: Q01DX001 (ip), vehicle: saline
[7] = dose: 400.0 mg/kg/injection, schedule: Q01DX001 (ip), vehicle: saline
[8] = dose: 100.0 mg/kg/injection, schedule: Q04DX003 (ip), vehicle: Klucel (hydroxypropylcellulose) (HPC)
[9] = dose: 200.0 mg/kg/injection, schedule: Q04DX003 (ip), vehicle: Klucel (hydroxypropylcellulose) (HPC)
[10] = dose: 400.0 mg/kg/injection, schedule: Q04DX003 (ip), vehicle: Klucel (hydroxypropylcellulose) (HPC)
[11] = dose: 100.0 mg/kg/injection, schedule: Q01DX009 (ip), vehicle: saline with Tween-80
[12] = dose: 200.0 mg/kg/injection, schedule: Q01DX009 (ip), vehicle: saline with Tween-80
[13] = dose: 400.0 mg/kg/injection, schedule: Q01DX009 (ip), vehicle: saline with Tween-80
[14] = dose: 100.0 mg/kg/injection, schedule: Q04DX002 (ip), vehicle: Klucel (hydroxypropylcellulose) (HPC)
[15] = dose: 200.0 mg/kg/injection, schedule: Q04DX002 (ip), vehicle: Klucel (hydroxypropylcellulose) (HPC)
[16] = dose: 400.0 mg/kg/injection, schedule: Q04DX002 (ip), vehicle: Klucel (hydroxypropylcellulose) (HPC)
[17] = dose: 100.0 mg/kg/injection, schedule: Q04DX003 (ip), vehicle: saline
[18] = dose: 200.0 mg/kg/injection, schedule: Q04DX003 (ip), vehicle: saline
[19] = dose: 100.0 mg/kg/injection, schedule: Q04DX002 (ip), vehicle: saline with Tween-80
[20] = dose: 200.0 mg/kg/injection, schedule: Q04DX002 (ip), vehicle: saline with Tween-80
[21] = dose: 400.0 mg/kg/injection, schedule: Q04DX002 (ip), vehicle: saline with Tween-80
[22] = dose: 100.0 mg/kg/injection, schedule: Q01DX009 (ip), vehicle: Klucel (hydroxypropylcellulose) (HPC)
[23] = dose: 200.0 mg/kg/injection, schedule: Q01DX009 (ip), vehicle: Klucel (hydroxypropylcellulose) (HPC)
[24] = dose: 400.0 mg/kg/injection, schedule: Q01DX009 (ip), vehicle: Klucel (hydroxypropylcellulose) (HPC)
[25] = dose: 100.0 mg/kg/injection, schedule: Q01DX001 (ip), vehicle: Klucel (hydroxypropylcellulose) (HPC)
[26] = dose: 200.0 mg/kg/injection, schedule: Q01DX001 (ip), vehicle: Klucel (hydroxypropylcellulose) (HPC)
[27] = dose: 400.0 mg/kg/injection, schedule: Q01DX001 (ip), vehicle: Klucel (hydroxypropylcellulose) (HPC)

Measured: T/C

CCCN(CCC)CCCOC(=O)c1ccc(N)cc1
inactive: dose: 25.0 mg/kg/injection, schedule: Q01DX009 (ip), vehicle: saline 99 % of control | dose: 44.0 mg/kg/injection, schedule: Q04DX003 (ip), vehicle: saline 86 % of control | dose: 50.0 mg/kg/injection, schedule: Q01DX009 (ip), vehicle: saline 106 % of control | dose: 50.0 mg/kg/injection, schedule: Q04DX003 (ip), vehicle: saline 104 % of control | dose: 66.0 mg/kg/injection, schedule: Q04DX003 (ip), vehicle: saline 88 % of control | dose: 67.0 mg/kg/injection, schedule: Q04DX003 (ip), vehicle: saline 93 % of control | [1] 89 % of control

Cc1cc(C)c2cc(C=O)cc-2c(C)c1
inactive: [2] 103 % of control | [3] 94 % of control | [4] 93 % of control

COc1cc(CC(=O)C2CN(C(=O)Cc3cc(Cl)c(OC)c(OC)c3)c3ccc(Br)cc32)cc(Cl)c1OC (stereo not drawn)
inactive: dose: 50.0 mg/kg/injection, schedule: Q01DX001 (ip), vehicle: saline 96 % of control | [5] 96 % of control | [6] 90 % of control | [7] 93 % of control

Cc1ccc(NC(N)=S)nc1
inactive: [8] 100 % of control | [9] 94 % of control | [10] 99 % of control

COC(OC)c1nc(NC(C)=O)[nH]c(=O)c1Cc1ccc(N)cc1
inactive: [11] 96 % of control | [2] 94 % of control | [12] 89 % of control | [3] 96 % of control | [13] 97 % of control | [4] 110 % of control

CS(=O)(=O)Nc1ccccc1OS(C)(=O)=O
inactive: dose: 75.0 mg/kg/injection, schedule: Q01DX001 (ip), vehicle: saline 102 % of control | dose: 150.0 mg/kg/injection, schedule: Q01DX001 (ip), vehicle: saline 106 % of control | dose: 300.0 mg/kg/injection, schedule: Q01DX001 (ip), vehicle: saline 106 % of control

COc1ccc(C(O)c2ccccc2C(=O)Nc2ccccc2)cc1 (stereo not drawn)
inactive: [11] 98 % of control | [12] 88 % of control | [13] 95 % of control

Cc1cc[c]([Hg][c]2ccc(C)cc2)cc1
inactive: [8] 97 % of control | [9] 103 % of control | [10] 94 % of control

CC(OC1OC(C(=O)O)C(O)C(O)C1O)c1ccccc1 (stereo not drawn)
inactive: [1] 98 % of control | dose: 200.0 mg/kg/injection, schedule: Q01DX009 (ip), vehicle: saline 97 % of control | dose: 400.0 mg/kg/injection, schedule: Q01DX009 (ip), vehicle: saline 105 % of control

Cc1c2cc[nH]c(C(F)(F)F)c2cc2c1nc1ccccc12
inactive: dose: 16.0 mg/kg/injection, schedule: Q01DX005 (ip), vehicle: saline 101 % of control | dose: 32.0 mg/kg/injection, schedule: Q01DX005 (ip), vehicle: saline 103 % of control | dose: 64.0 mg/kg/injection, schedule: Q01DX005 (ip), vehicle: saline 103 % of control | dose: 128.0 mg/kg/injection, schedule: Q01DX005 (ip), vehicle: saline 103 % of control

CCOC(=O)C1OC1(C)C (stereo not drawn)
inactive: [14] 88 % of control | [15] 103 % of control | [16] 95 % of control

CCNC(=O)c1cc2cccc(OC)c2oc1=N
inactive: [17] 105 % of control | [18] 97 % of control | dose: 400.0 mg/kg/injection, schedule: Q04DX003 (ip), vehicle: saline 90 % of control

Nc1nc(-c2ccccc2)[nH]c(=O)c1N=O
inactive: [19] 98 % of control | [20] 87 % of control | [21] 102 % of control

CCN(CC)CCOC(=O)Nc1ccc(Cl)cc1
inactive: [22] 93 % of control | [17] 98 % of control | [23] 93 % of control | [18] 98 % of control | [24] 98 % of control

COc1ccccc1C(=O)N/N=C\c1c[nH]c2ccccc12
inactive: [14] 93 % of control | [15] 89 % of control | [16] 89 % of control

N#CCCN1c2ccccc2Sc2ccc(Cl)cc21
inactive: [22] 96 % of control | [23] 101 % of control | [24] 98 % of control

c1ccc(-c2nnc(-c3ccccn3)nc2-c2ccccc2)cc1
inactive: [2] 95 % of control | [3] 104 % of control | [4] 112 % of control

CN(C)c1ccc(SCC(=O)c2ccccc2)cc1
inactive: [2] 93 % of control | [3] 101 % of control | [4] 95 % of control

O=C(CCN1CC1)OCCCl
inactive: dose: 50.0 mg/kg/injection, schedule: Q01DX001 (ip), vehicle: Klucel (hydroxypropylcellulose) (HPC) 112 % of control | [25] 106 % of control | [26] 101 % of control | [27] 111 % of control

CCn1c2ccccc2c2nnc(NCCCO)nc21
inactive: [19] 96 % of control | dose: 100.0 mg/kg/injection, schedule: Q04DX002 (ip), vehicle: saline 101 % of control | [20] 100 % of control | dose: 200.0 mg/kg/injection, schedule: Q04DX002 (ip), vehicle: saline 97 % of control | [21] 94 % of control | dose: 400.0 mg/kg/injection, schedule: Q04DX002 (ip), vehicle: saline 101 % of control

O=C(Nc1ccccc1)Oc1cccnc1
inactive: [25] 98 % of control | [26] 100 % of control | [27] 98 % of control

O=C(O)c1ccccc1N=CC(=O)c1c2ccccc2cc2ccccc12
inactive: dose: 12.5 mg/kg/injection, schedule: Q04DX002 (ip), vehicle: Klucel (hydroxypropylcellulose) (HPC) 105 % of control | dose: 25.0 mg/kg/injection, schedule: Q04DX002 (ip), vehicle: Klucel (hydroxypropylcellulose) (HPC) 105 % of control | dose: 50.0 mg/kg/injection, schedule: Q04DX002 (ip), vehicle: Klucel (hydroxypropylcellulose) (HPC) 102 % of control

CCOC(=O)CC(c1ccccc1)C(C(=O)OCC)C(=O)OCC (stereo not drawn)
inactive: [5] 106 % of control | [6] 103 % of control | [7] 103 % of control

COc1cc(CC(C(=O)OC(C)(C)C)C(=O)OC(C)(C)C)cc(OC)c1OC
inactive: dose: 50.0 mg/kg/injection, schedule: Q01DX001 (ip), vehicle: carboxymethylcellulose (CMC) 101 % of control | dose: 100.0 mg/kg/injection, schedule: Q01DX001 (ip), vehicle: carboxymethylcellulose (CMC) 97 % of control | dose: 200.0 mg/kg/injection, schedule: Q01DX001 (ip), vehicle: carboxymethylcellulose (CMC) 97 % of control | dose: 400.0 mg/kg/injection, schedule: Q01DX001 (ip), vehicle: carboxymethylcellulose (CMC) 109 % of control
